Consider 32 compounds from patent publication US8691818B2, “Cyclic triazo and diazo sodium channel blockers” (University Of Greenwich, priority 2008, dated 2014).

What is called IC50 is the midpoint of a concentration-inhibition curve. The inhibition is the change of the read-out against control, counted positive when it falls. For orientation: melting point means the temperature of the solid-liquid transition.

The target of one data set is hERG (Homo sapiens, UniProt Q12809). The data set is described as follows: hERG: inhibition of binding of [3H]astemizole to HEK-293 cells expressing human recombinant hERG. Particulars: for hERG % inhibition @ 10 μM: [3H]astemizole binding; for inhibition at 10 µM: human, probe [3H]astemizole. (The hERG channel carries a current that helps repolarise heart muscle cells.)
Sequence of hERG (Q12809 whole entry): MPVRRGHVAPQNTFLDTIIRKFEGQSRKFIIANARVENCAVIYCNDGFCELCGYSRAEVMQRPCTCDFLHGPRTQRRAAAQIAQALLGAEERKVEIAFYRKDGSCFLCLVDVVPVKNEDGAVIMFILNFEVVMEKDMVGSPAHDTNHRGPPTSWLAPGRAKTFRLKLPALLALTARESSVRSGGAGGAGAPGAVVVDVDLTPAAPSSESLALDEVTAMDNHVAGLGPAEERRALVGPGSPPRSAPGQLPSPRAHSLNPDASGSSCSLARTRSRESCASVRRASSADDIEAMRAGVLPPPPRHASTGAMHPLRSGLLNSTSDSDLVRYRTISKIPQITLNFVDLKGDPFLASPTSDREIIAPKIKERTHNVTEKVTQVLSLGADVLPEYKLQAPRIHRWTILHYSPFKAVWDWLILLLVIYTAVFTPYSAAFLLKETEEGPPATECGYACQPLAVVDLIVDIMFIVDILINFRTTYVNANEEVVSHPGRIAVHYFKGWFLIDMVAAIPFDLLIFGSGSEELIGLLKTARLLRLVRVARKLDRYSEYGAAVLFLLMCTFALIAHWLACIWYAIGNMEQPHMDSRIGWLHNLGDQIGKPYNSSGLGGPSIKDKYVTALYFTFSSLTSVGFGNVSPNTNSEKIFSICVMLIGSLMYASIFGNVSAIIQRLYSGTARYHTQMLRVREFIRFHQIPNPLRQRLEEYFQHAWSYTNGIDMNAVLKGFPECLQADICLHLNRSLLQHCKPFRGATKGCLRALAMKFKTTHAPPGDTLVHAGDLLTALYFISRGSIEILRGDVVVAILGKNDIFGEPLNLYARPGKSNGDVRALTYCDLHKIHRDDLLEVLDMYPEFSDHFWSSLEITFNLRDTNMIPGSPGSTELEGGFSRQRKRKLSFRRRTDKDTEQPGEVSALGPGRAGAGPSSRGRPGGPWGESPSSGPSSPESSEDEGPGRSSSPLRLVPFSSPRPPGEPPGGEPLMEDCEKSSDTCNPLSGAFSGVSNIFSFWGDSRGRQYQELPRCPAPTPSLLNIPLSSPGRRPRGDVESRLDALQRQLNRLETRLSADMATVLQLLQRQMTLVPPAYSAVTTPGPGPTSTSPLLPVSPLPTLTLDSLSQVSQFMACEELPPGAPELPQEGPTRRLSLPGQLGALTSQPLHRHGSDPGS

The subject of another data set is sodium channel. The data set is described as follows: [14C]guanidine flux: veratrine-evoked uptake of [14C]guanidine into rat forebrain synaptosomes (primary sodium channel assay). Format: biochemical. The following applies: 30° for 2½ min. In a few lines:
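Synaptosomal fraction from male Wistar rat forebrain (without cerebellum/medulla), 20-25 mg wet weight/ml. Veratrine-evoked [14C]guanidine uptake at 30° for 2½ min across a compound concentration range; IC50 from concentration-effect curves, mean±sem.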

Data set [1] addresses T1, DiHydroFolate Reductase (DHFR) (Rattus norvegicus, UniProt Q920D2).
T1 construct: from tissue; host or cells: rat liver homogenate supernatant
T1 sequence (Q920D2 1-187): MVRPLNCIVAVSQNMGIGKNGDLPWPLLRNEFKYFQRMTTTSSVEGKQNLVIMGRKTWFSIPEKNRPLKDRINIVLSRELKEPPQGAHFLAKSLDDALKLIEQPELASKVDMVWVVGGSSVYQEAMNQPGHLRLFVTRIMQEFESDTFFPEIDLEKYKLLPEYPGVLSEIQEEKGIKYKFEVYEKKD
The data set is described as follows: Inhibition of binding of [3H]methotrexate to rat liver homogenate supernatant. Particulars: for inhibition at 125 µM: read-out: [3H]mtx binding (% inhibition @ 125 μM); for inhibition at 99 µM: read-out: [3H]mtx binding % inhibition (* 99 μM, *** uses fresh batch of supernatant), 99 μM, fresh batch of supernatant. An outline of the steps: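 Displacement of [3H]methotrexate binding to rat liver homogenate supernatant, prepared at 4 °C in pH 6.0 phosphate buffer with 15 mM dithiothreitol. Values are mean±sem over the number of experiments shown.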

[2] abbreviates: read-out: hERG IC50 (μM) (extrapolated from 10 μM inh'n), extrapolated assuming binding slope 1.0.

Where two headings read alike, the source gives them in different places.

In the case of “3,5-Diamino-6-[1-(2,5-dimethoxynaphthyl)-1,2,4-triazine [CEN-157]”, the “hERG % inhibition @ 10 μM” value on hERG came out at 6%. Further, the figures for the IC50 at hERG (setting [2]) and in the data set on sodium channel were 157 µM and 204 µM, respectively. Moreover, in data set [1] (125 μM), the “[3H]mtx binding (% inhibition @ 125 μM)” value is on record as −1%.

Consider `Nc1nnc(-c2ccc(Cl)nc2Cl)c(N)n1` [CEN-174, 3,5-Diamino-6-[3-(2,6-dichloropyidyl)]-1,2,4-triazine], for which, at hERG, the IC50 amounted to 101 µM and the inhibition at 10 µM came to 9%. Further, the midpoint of inhibition with sodium channel, the IC50, lay at 589 µM. In addition, the inhibition at 125 µM in data set [1] (125 μM) was found to be 4%.

As to `Nc1nnc2c3ccccc3c3ccccc3c2n1` [CEN-128], the IC50 at hERG is 53 µM; in the data set with sodium channel it was 251 µM. On hERG, the inhibition at 10 µM was 16%. In addition, the inhibition at 125 µM in data set [1] is 0%.

Take `Cn1nc(-c2cccc(-c3ccccc3)c2)c(N)nc1=N` [CEN-161, 5(3)-Amino-6-(3-biphenyl)-2,3(2,5)-dihydro-3(5)-imino-2-methyl-1,2,4-triazine methanesulfonate]: the IC50 on hERG was 1 µM; with sodium channel, 16 µM. Besides, the inhibition at 10 µM on hERG came to 88%. The inhibition at 125 µM in data set [1] (125 μM) is -7%.

Turning to `CS(=O)(=O)O.Cn1nc(C23CC4CC(CC(C4)C2)C3)c(N)nc1=N` [CEN-100, 6-Adamantyl-5(3)-amino-2,3(2,5)-dihydro-3(5)-imino-2-methyl-1,2,4-triazine methanesulfonate], on hERG, the “hERG % inhibition @ 10 μM” value came to 30%. The IC50 at hERG (setting [2]) was 23 µM; in the data set with sodium channel, 77.6 µM. Moreover, in data set [1] (125 μM), the “[3H]mtx binding (% inhibition @ 125 μM)” value is given as 10%.

On to `CCn1nc(-c2cccs2)c(N)nc1=N` [CEN-62, 5(3)-Amino-6-(2-thienyl)-2,3(2,5)-dihydro-3(5)-imino-2-ethyl-1,2,4-triazine methanesulfonate], for which, on hERG, the IC50 is over 200 µM and the inhibition at 10 µM was -13%. The compound further displayed an IC50 with sodium channel of 141 µM. For the same compound, the inhibition at 125 µM in data set [1] (125 μM) is 46%.

In the case of `CCn1nc(-c2ccc3ccccc3c2)c(N)nc1=N` [CEN-75, 5(3)-Amino-6-(2-naphthyl)-2,3(2,5)-dihydro-3(5)-imino-2-ethyl-1,2,4-triazine methanesulfonate], the IC50 on hERG worked out at 3 µM; in the data set with sodium channel, 49 µM. Further, on hERG, the inhibition at 10 µM turned out to be 78%. Moreover, the inhibition at 125 µM in data set [1] (125 μM) was 5%.

On to `CC(C)(C)c1cc(-c2nnc(N)nc2N)cc(C(C)(C)C)c1` [CEN-187, 3,5-Diamino-6-(3,5-di-tert-butylphenyl)-1,2,4-triazine], for which the melting point lay within 278 to 280 °C. The same compound had a half-maximal inhibitory concentration (IC50) in the data set with sodium channel of 447 µM. Besides, in data set [1] (125 μM), the inhibition at 125 µM was 99%.

In the case of `Nc1nnc(-c2c3ccccc3cc3ccccc23)c(N)n1` [CEN-118, 6-(9-Anthracenyl)-3,5-diamino-1,2,4-triazine], the melting point was 350 to 352 °C. In the data set on sodium channel, this compound displayed an IC50 of 1150 µM. For the same compound, the inhibition at 125 µM in data set [1] (125 μM) was -7%.

`Nc1nnc(-c2cc(Cl)sc2Cl)c(N)n1` [CEN-71, 3,5-Diamino-6-[3-(2,5 dichlorothienyl)]-1,2,4-triazine] gave a melting point of 190 to 192 °C. The compound also displayed an IC50 with sodium channel of 513 µM. For the same compound, in data set [1] (125 μM), the inhibition at 125 µM is 54%.

Regarding `Nc1nnc(-c2ccc3c(c2)OCO3)c(N)n1` [CEN-103, 3,5-Diamino-6-(3,4-methylenedioxyphenyl)-1,2,4-triazine], the melting point fell in the range of 217 to 218 °C. Besides, the IC50 in the data set with sodium channel was over 1000 µM. Also, the inhibition at 125 µM in data set [1] (125 μM) amounted to 47%.

With `Nc1nnc(-c2cccc(-c3ccccc3)c2)c(N)n1` [CEN-159, 3,5-Diamino-6-(3-phenylphenyl)-1,2,4-triazine], the melting point was 215 to 217 °C (dec.). Moreover, the IC50 in the data set on sodium channel is 44 µM. Besides, in data set [1] (125 μM), the inhibition at 125 µM was 97%.

`Nc1nnc(-c2cccc(OCc3c(Cl)cccc3Cl)c2)c(N)n1` [CEN-185, 3,5-Diamino-6-[3-(2,6-dichlorobenzyloxy)phenyl]-1,2,4-triazine] displayed a melting point of 190 to 192 °C. In the data set on sodium channel, the IC50 is 3 µM. Besides, in data set [1] (125 μM), the inhibition at 125 µM came out at 90%.

The compound `Nc1nnc(-c2ccccc2Cl)c(-c2ccccc2Cl)n1` [CEN-132, 3-Amino-5,6-bis(2-chlorophenyl)-1,2,4-triazine] registered a melting point of 240 to 242 °C. Half-maximal inhibition in the data set on sodium channel (IC50) was put at 69.2 µM. For the same compound, the inhibition at 125 µM in data set [1] (125 μM) turned out to be 4%.

Compound `COc1cc(-c2nnc(N)nc2N)cc(OC)c1OC` [CEN-95, 3,5-Diamino-6-(3,4,5 trimethoxyphenyl)-1,2,4-triazine] returned a melting point of 309 to 311 °C. The IC50 in the data set with sodium channel was over 1000 µM. Moreover, the inhibition at 125 µM in data set [1] (125 μM) was 6%.

On to `Nc1nnc(-c2ccc(-c3ccccc3)o2)c(N)n1` [CEN-107, 3,5-Diamino-6-[2-(5-phenylfuryl)]-1,2,4-triazine], for which the melting point was in the range of 247 to 249 °C. In addition, the IC50 in the data set with sodium channel worked out at 1170 µM. In addition, the inhibition at 125 µM in data set [1] (125 μM) stood at 48%.

Consider `Nc1nnc(-c2cc(Cl)cc(C(F)(F)F)c2)c(N)n1` [CEN-172, 3,5-Diamino-6-(3-chloro-5-trifluoromethylphenyl)-1,2,4-triazine], for which the melting point fell in the range of 249 to 251 °C. In the data set with sodium channel, this compound came in with an IC50 of 234 µM. For the same compound, the inhibition at 125 µM in data set [1] (125 μM) was 100%.

Consider `COc1ccc2cc(OC)c(-c3nnc(N)nc3N)cc2c1` [CEN-143], for which the melting point is 274 to 276 °C. In the data set on sodium channel, this compound gave an IC50 of over 2000 µM. Moreover, the inhibition at 125 µM in data set [1] (125 μM) was determined as 27%.

In the case of `CC(c1ccccc1)(c1ccccc1)c1nnc(N)nc1N` [CEN-147, 3,5-Diamino-6-(1,1-diphenylethyl)-1,2,4-triazine], the melting point is 197 to 199 °C. In the data set with sodium channel, this compound gave an IC50 of 60.3 µM. Also, in data set [1] (125 μM), the inhibition at 125 µM was 4%.

`Nc1nnc(-c2ccc3cc(Br)ccc3c2)c(N)n1` [CEN-96]: the melting point was in the range of 260 to 262 °C. In addition, the IC50 with sodium channel came out at 110 µM. The inhibition at 125 µM in data set [1] (125 μM) was 105%.

The compound `Nc1nnc(C2(c3ccc(Cl)cc3)CCCCC2)c(N)n1` [CEN-145, 3,5-Diamino-6-[1-(4-chlorophenyl)-1-cyclohexyl]-1,2,4-triazine] registered a melting point of 205 to 207 °C. Moreover, in the data set on sodium channel, the midpoint of inhibition, the IC50, lay at 9.6 µM. In addition, the inhibition at 125 µM in data set [1] (125 μM) turned out to be 39%.

In the case of `COc1cc2ccccc2cc1-c1nnc(N)nc1N` [CEN-139], the melting point lay within 252 to 254 °C. This compound also had an IC50 in the data set with sodium channel of 288 µM. Besides, the inhibition at 125 µM in data set [1] (125 μM) was determined as 46%.

The compound `Nc1nnc(-c2ccccc2Br)c(N)n1` [CEN-68, 3,5-Diamino-6-(2-bromophenyl)-1,2,4-triazine] came in with a melting point of 198 to 200 °C. In the data set on sodium channel, this compound showed an IC50 of 794 µM. Moreover, in data set [1] (125 μM), the inhibition at 125 µM is 101%.

In the case of `CS(=O)(=O)c1ccc(-c2nnc(N)nc2N)c(Cl)c1` [CEN-179, 3,5-Diamino-6-[2-chloro-4-(methylsulphonyl)phenyl]-1,2,4-triazine], the melting point was 286 to 288 °C. For the same compound, the IC50 with sodium channel was over 2000 µM. Besides, the inhibition at 125 µM in data set [1] (125 μM) is -1%.

`Nc1nnc(-c2ccc(-c3ccccc3)cc2)c(N)n1` [CEN-82, 3,5-Diamino-6-(4-biphenyl)-1,2,4-triazine] had a melting point of 282 to 284 °C. For the same compound, in the data set with sodium channel, the 50% inhibitory concentration (IC50) is over 1000 µM. Besides, in data set [1] (125 μM), the inhibition at 125 µM is -8%.

Take `Nc1nnc(-c2cccc(OCc3ccc(Cl)cc3Cl)c2)c(N)n1` [CEN-144, 3,5-Diamino-6-[3-(2,4-dichlorobenzyloxyphenyl)]-1,2,4-triazine]: the melting point lay within 164 to 166 °C. The IC50 in the data set on sodium channel is 57.5 µM. The inhibition at 125 µM in data set [1] (125 μM) was determined as 96%.

Consider `Nc1nnc(-c2cc(Br)c(Br)o2)c(N)n1` [CEN-121, 3,5-Diamino-6-[2-(4,5-dibromofuryl)]-1,2,4-triazine], for which the melting point lay in the range of 272 to 275 °C. Further, the IC50 in the data set on sodium channel is over 1000 µM. In data set [1] (125 μM), the inhibition at 125 µM stood at 92%.

Turning to `COc1cc(OC)cc(-c2nnc(N)nc2N)c1` [CEN-192, 3,5-Diamino-6-(3,5-dimethoxyphenyl)-1,2,4-triazine], the melting point lay within 225 to 228 °C. In addition, the IC50 in the data set on sodium channel is over 2000 µM. The inhibition at 99 µM in data set [1] was 91%.

In turn, `Nc1nnc(-c2cc(C(F)(F)F)cc(Cl)c2F)c(N)n1` [CEN-197, 3,5-Diamino-6-(3-chloro-2-fluoro-5-trifluoromethylphenyl)-1,2,4-triazine] gave a melting point of 218 to 220 °C. The same compound yielded an IC50 in the data set on sodium channel of 91 µM. The inhibition at 99 µM in data set [1] was 95%.

Turning to `Nc1nnc(-c2ccccc2-c2ccccc2)c(N)n1` [CEN-74, 3,5-Diamino-6-(2-biphenyl)-1,2,4-triazine], the melting point lay within 222 to 224 °C. In the data set on sodium channel, the 50% inhibitory concentration (IC50) turned out to be 295 µM. Moreover, in data set [1] (125 μM), the inhibition at 125 µM was found to be 99%.

`CCOc1cc2ccccc2cc1-c1nnc(N)nc1N` [CEN-141] displayed a melting point of 212 to 214 °C. The same compound gave an IC50 with sodium channel of 288 µM. The inhibition at 125 µM in data set [1] (125 μM) came to 30%.

`COc1cc(-c2nnc(N)nc2N)c(OC)c2ccccc12` [CEN-151] yielded a melting point of 142 to 144 °C. Besides, half-maximal inhibition in the data set on sodium channel (IC50) required 67.6 µM. Also, the inhibition at 125 µM in data set [1] (125 μM) amounted to 76%.
